Here are results for three compounds from ChEMBL document CHEMBL1149499, “Synthesis and agonist activity of cyclic ADP-ribose analogues with substitution of the northern ribose by ether or alkane chains” (J Med Chem, 2006).

SMILES strings stand for the structures. Calls of active or inactive are those of the source. The calls are words filed in the database; no cut-off is given here.

What all share (assay type): functional, cell-based
Common to all, as to conditions: Homo sapiens

For assay [1], the system named is Jurkat. Kind of assay: Agonist activity against cADPR/RyR assessed as induction of calcium influx in intact jurkat T cells at 500 uM.
Assay [2] deals with Jurkat. As to the kind of experiment: Antagonist activity against cADPR/RyR assessed as inhibition of anti CD3-stimulated calcium influx in intact jurkat T cells at 500 uM.
In assay [3] the test system is Jurkat. As to the kind of experiment: Induction of calcium flux in single jurkat T cell by confocal calcium imaging experiment at 500 uM.

As to `N=c1c2ncn3c2ncn1CCCCOP(=O)(O)OP(=O)(O)OC[C@H]1O[C@@H]3[C@H](O)[C@@H]1O`, the result in assay [1] was Active. Moreover, in assay [2], the result was inactive.
`N=c1c2ncn3c2ncn1CCOCCOP(=O)(O)OP(=O)(O)OC[C@H]1O[C@@H]3[C@H](O)[C@@H]1O`: the outcome in assay [1] and in assay [3] was Active. Moreover, in assay [2], the outcome was inactive.
Turning to `N=c1c2ncn3c2ncn1CCCCCOP(=O)(O)OP(=O)(O)OC[C@H]1O[C@@H]3[C@H](O)[C@@H]1O`, in assay [1], the outcome was Active. Further, the result in assay [2] was inactive.
